Consider 30 molecules from patent US20260028365A1 (BIOGEN MA INC., priority 2022, published 2026).

Tyk2, sequence (P29597 whole entry): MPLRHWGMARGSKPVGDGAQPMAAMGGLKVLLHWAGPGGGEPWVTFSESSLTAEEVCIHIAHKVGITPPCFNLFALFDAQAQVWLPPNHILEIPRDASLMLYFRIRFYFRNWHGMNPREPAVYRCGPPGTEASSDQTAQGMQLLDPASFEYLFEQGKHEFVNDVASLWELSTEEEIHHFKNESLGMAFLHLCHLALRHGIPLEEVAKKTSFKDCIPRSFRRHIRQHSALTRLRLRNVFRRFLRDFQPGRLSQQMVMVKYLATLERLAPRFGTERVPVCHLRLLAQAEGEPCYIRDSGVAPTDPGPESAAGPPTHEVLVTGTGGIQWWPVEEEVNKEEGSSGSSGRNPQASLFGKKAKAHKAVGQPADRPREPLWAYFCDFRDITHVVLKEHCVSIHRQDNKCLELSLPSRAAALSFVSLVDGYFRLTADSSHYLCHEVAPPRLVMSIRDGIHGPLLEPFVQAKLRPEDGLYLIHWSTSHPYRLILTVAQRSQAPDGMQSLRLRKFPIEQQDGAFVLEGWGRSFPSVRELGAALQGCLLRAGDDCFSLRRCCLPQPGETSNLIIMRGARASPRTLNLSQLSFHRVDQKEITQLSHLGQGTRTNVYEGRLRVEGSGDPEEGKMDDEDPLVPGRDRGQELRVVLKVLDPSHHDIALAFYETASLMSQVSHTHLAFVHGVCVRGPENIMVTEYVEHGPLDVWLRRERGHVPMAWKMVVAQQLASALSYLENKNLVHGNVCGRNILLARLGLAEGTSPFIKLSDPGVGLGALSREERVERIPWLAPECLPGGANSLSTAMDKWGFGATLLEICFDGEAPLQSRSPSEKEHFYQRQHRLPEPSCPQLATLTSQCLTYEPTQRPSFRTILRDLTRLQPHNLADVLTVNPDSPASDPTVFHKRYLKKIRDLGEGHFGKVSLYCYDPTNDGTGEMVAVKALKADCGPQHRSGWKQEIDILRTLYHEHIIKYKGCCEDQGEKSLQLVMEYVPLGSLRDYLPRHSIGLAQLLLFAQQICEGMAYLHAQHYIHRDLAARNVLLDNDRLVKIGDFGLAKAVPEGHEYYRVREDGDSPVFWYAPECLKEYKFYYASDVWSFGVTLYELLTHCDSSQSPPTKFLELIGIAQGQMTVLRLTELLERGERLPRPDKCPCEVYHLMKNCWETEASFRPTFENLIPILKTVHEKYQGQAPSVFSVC

In this assay the target is Tyk2 (Homo sapiens (Human), UniProt P29597). Description: pSTAT4 Cell Assay (MSD, NK92 cells). The class given is cell-based. To be noted: MSD. As for the experimental part:
The inhibitory potency of compounds of the disclosure against the Tyk2 kinase activity on STAT4 was evaluated using an MSD-platform plate-based assay format. NK92 cells natively expressing STAT4 and Tyk2 were serum-starved to reduce background phosphorylation levels, then cells were treated compounds for 1 hr with a 10-point four-fold dilution series starting at 10 μM. Cells were then stimulated with 30 ng/mL […] for 15 minutes. […] The data were normalized and the percent activity versus log concentration of compound were fitted with a 4-parameter logistic model to generate to generate IC50 curves.
The term IC50 denotes the midpoint of a concentration-inhibition curve. Low readings indicate higher potency, high ones lower potency. For `COc1ccc(COc2cnc(NC(C)=O)cc2Nc2cc(C)nc(C(C)(F)F)n2)nc1` [Example 127, N-(4-((2-(1,1-difluoroethyl)-6-methylpyrimidin-4-yl)amino)-5-((5-methoxypyridin-2-yl)methoxy)pyridin-2-yl)acetamide], the IC50 is at most 10 nM.

Consider `COc1ccnc(COc2cnc(NC(C)=O)cc2Nc2cc(C)nc(C(C)(F)F)n2)c1` [Example 128, N-(4-((2-(1,1-difluoroethyl)-6-methylpyrimidin-4-yl)amino)-5-((4-methoxypyridin-2-yl)methoxy)pyridin-2-yl)acetamide], for which the IC50 is 10 to 100 nM. For `CC(=O)Nc1cc(Nc2cc(C)nc(C(C)(F)F)n2)c(OCc2cc(C#N)ccn2)cn1` [Example 129, N-(5-((4-cyanopyridin-2-yl)methoxy)-4-((2-(1,1-difluoroethyl)-6-methylpyrimidin-4-yl)amino)pyridin-2-yl)acetamide] the value was 10 to 100 nM; for `CC(=O)Nc1cc(Nc2cc(C)nc(C(C)(F)F)n2)c(OCc2ccc(C)cn2)cn1` [Example 130, N-(4-((2-(1,1-difluoroethyl)-6-methylpyrimidin-4-yl)amino)-5-((5-methylpyridin-2-yl)methoxy)pyridin-2-yl)acetamide], 10 to 100 nM; for `CC(=O)Nc1cc(Nc2cc(C)nc(C(C)(F)F)n2)c(OCc2ccc(C#N)cn2)cn1` [Example 131, N-(5-((5-cyanopyridin-2-yl)methoxy)-4-((2-(1,1-difluoroethyl)-6-methylpyrimidin-4-yl)amino)pyridin-2-yl)acetamide], 10 to 100 nM. The molecule `COc1cccc(COc2cnc(NC(C)=O)cc2Nc2cc(C)nc(C(C)(F)F)n2)n1` [Example 132, N-(4-((2-(1,1-difluoroethyl)-6-methylpyrimidin-4-yl)amino)-5-((6-methoxypyridin-2-y1)methoxy)pyridin-2-yl)acetamide] showed an IC50 of 10 to 100 nM. Take `CC(=O)Nc1cc(Nc2cc(C)nc(C(C)(F)F)n2)c(OCc2cc(C)ccn2)cn1` [Example 133, N-(4-((2-(1,1-difluoroethyl)-6-methylpyrimidin-4-yl)amino)-5-((4-methylpyridin-2-yl)methoxy)pyridin-2-yl)acetamide]: the IC50 is at most 10 nM.

With `CC(=O)Nc1cc(Nc2cc(C)nc(C(C)(F)F)n2)c(OCc2ncccn2)cn1` [Example 134, N-(4-((2-(1,1-difluoroethyl)-6-methylpyrimidin-4-yl)amino)-5-(pyrimidin-2-ylmethoxy)pyridin-2-yl)acetamide], the IC50 was 100 to 1000 nM.

On to `CC(=O)Nc1cc(Nc2cc(C)nc(C(C)(F)F)n2)c(OCC2CCCOC2)cn1` (stereo not drawn) [Example 136, N-(4-((2-(1,1-difluoroethyl)-6-methylpyrimidin-4-yl)amino)-5-((tetrahydro-2H-pyran-3-yl)methoxy)pyridin-2-yl)acetamide], for which the IC50 was at most 10 nM. Next, `COC(C)CCOc1cnc(NC(C)=O)cc1Nc1cc(C)nc(C(C)(F)F)n1` (stereo not drawn) [Example 137, N-(4-((2-(1,1-difluoroethyl)-6-methylpyrimidin-4-yl)amino)-5-(3-methoxybutoxy)pyridin-2-yl)acetamide]: 10 to 100 nM. Turning to `CC(=O)Nc1cc(Nc2cc(C)nc(C34COC(C3)C4)n2)c(-c2cc3n(n2)CCN(C)C3)cn1` [Example 141, N-(4-((2-(2-oxabicyclo[2.1.1]hexan-4-yl)-6-methylpyrimidin-4-yl)amino)-5-(5-methyl-4,5,6,7-tetrahydropyrazolo[1,5-a]pyrazin-2-yl)pyridin-2-yl)acetamide], the IC50 is at most 10 nM. Next, `COc1cnc(C(C)(F)F)nc1Nc1cc(NC(C)=O)ncc1C1CC1` [Example 143, N-(5-cyclopropyl-4-((2-(1,1-difluoroethyl)-5-methoxypyrimidin-4-yl)amino)pyridin-2-yl)acetamide]: at least 1000 nM; `CO[C@H]1C[C@H](Oc2cc(Nc3cc(NC(C)=O)ncc3-c3ccn(C)n3)nc(C(C)(F)F)c2)C1` [Example 148, N-(4-((6-(1,1-difluoroethyl)-4-((1r,3r)-3-methoxycyclobutoxy)pyridin-2-yl)amino)-5-(1-methyl-1H-pyrazol-3-yl)pyridin-2-yl)acetamide]: at most 10 nM; `CC(=O)Nc1cc(Nc2cccc(C(F)CF)n2)c(-c2ccn(C)n2)cn1` (stereo not drawn) [Example 149, N-(4-((6-(1,2-difluoroethyl)pyridin-2-yl)amino)-5-(1-methyl-1H-pyrazol-3-yl)pyridin-2-yl)acetamide]: at most 10 nM. `CC(=O)Nc1cc(Nc2cc(C(C)C)nc(C(C)(F)F)n2)c(-c2ccn(C)n2)cn1` [Example 205, N-(4-((2-(1,1-difluoroethyl)-6-isopropylpyrimidin-4-yl)amino)-5-(1-methyl-1H-pyrazol-3-yl)pyridin-2-yl)acetamide] had a 50% inhibitory concentration (IC50) of at least 1000 nM. For `COCCOc1cc(Nc2cc(NC(C)=O)ncc2-c2ccn(C)n2)nc(C(C)(F)F)n1` [Example 207, N-(4-((2-(1,1-difluoroethyl)-6-(2-methoxyethoxy)pyrimidin-4-yl)amino)-5-(1-methyl-1H-pyrazol-3-yl)pyridin-2-yl)acetamide] the value was at most 10 nM; for `COc1cc(Nc2cc(NC(C)=O)ncc2-c2ccn(C)n2)nc(C(C)(F)F)c1` [Example 209, N-(4-((6-(1,1-difluoroethyl)-4-methoxypyridin-2-yl)amino)-5-(1-methyl-1H-pyrazol-3-yl)pyridin-2-yl)acetamide], at most 10 nM; for `COCCOc1cc(Nc2cc(NC(C)=O)ncc2-c2ccn(C)n2)nc(C(C)(F)F)c1` [Example 210, N-(4-((6-(1,1-difluoroethyl)-4-(2-methoxyethoxy)pyridin-2-yl)amino)-5-(1-methyl-1H-pyrazol-3-yl)pyridin-2-yl)acetamide], at most 10 nM.

`CC(=O)Nc1cc(Nc2cc(C)nc(C(C)(F)F)n2)c(-c2cc3n(n2)CCNC3=O)cn1` [Example 223, N-(4-((2-(1,1-difluoroethyl)-6-methylpyrimidin-4-yl)amino)-5-(4-oxo-4,5,6,7-tetrahydropyrazolo[1,5-a]pyrazin-2-yl)pyridin-2-yl)acetamide] had an IC50 of 10 to 100 nM.

As to `CC(=O)Nc1cc(Nc2cc(C)nc(C(C)(F)F)n2)c(-c2cc3n(n2)C(O)CN(C)C3)cn1` (stereo not drawn) [Example 224, N-(4-((2-(1,1-difluoroethyl)-6-methylpyrimidin-4-yl)amino)-5-(7-hydroxy-5-methyl-4,5,6,7-tetrahydropyrazolo[1,5-a]pyrazin-2-yl)pyridin-2-yl)acetamide], the IC50 was at most 10 nM. For `COCCOc1cc(-c2cnc(NC(C)=O)cc2Nc2cc(C)nc(C(C)(F)F)n2)ncn1` [Example 249, N-(4-((2-(1,1-difluoroethyl)-6-methylpyrimidin-4-yl)amino)-5-(6-(2-methoxyethoxy)pyrimidin-4-yl)pyridin-2-yl)acetamide] the value was 10 to 100 nM. The molecule `CC(=O)Nc1cc(Nc2cc(C)nc(C(C)(F)F)n2)c(-c2cc(N(C)C)cnn2)cn1` [Example 253, N-(4-((2-(1,1-difluoroethyl)-6-methylpyrimidin-4-yl)amino)-5-(5-(dimethylamino)pyridazin-3-yl)pyridin-2-yl)acetamide] returned an IC50 of at least 1000 nM.

On to `CC(=O)Nc1cc(Nc2ccnc(C(C)(F)F)n2)c(-c2nc3c(s2)CN(C)C3)cn1` [Example 284, N-(4-((2-(1,1-difluoroethyl)pyrimidin-4-yl)amino)-5-(5-methyl-5,6-dihydro-4H-pyrrolo[3,4-d]thiazol-2-yl)pyridin-2-yl)acetamide], for which the IC50 fell in the range of 10 to 100 nM. For `CNC(=O)Nc1cc(Nc2cc(C)nc(C(C)(F)F)n2)c(-c2ccc(F)cn2)cn1` [Example 290, 1-(4′-((2-(1,1-difluoroethyl)-6-methylpyrimidin-4-yl)amino)-5-fluoro-[2,3′-bipyridin]-6′-yl)-3-methylurea] the value was at most 10 nM; for `COc1ccc(Oc2cnc(NC(C)=O)cc2Nc2cc(C)nc(C(C)(F)F)n2)nn1` [Example 358, N-(4-((2-(1,1-difluoroethyl)-6-methylpyrimidin-4-yl)amino)-5-((6-methoxypyridazin-3-yl)oxy)pyridin-2-yl)acetamide], at least 1000 nM; for `COc1cnc(NC(C)=O)cc1Nc1cc(-c2cnc(C)s2)nc(C(C)(F)F)n1` [Example 387, N-(4-((2-(1,1-difluoroethyl)-6-(2-methylthiazol-5-yl)pyrimidin-4-yl)amino)-5-methoxypyridin-2-yl)acetamide], at most 10 nM.

Molecule `COc1cnc(NC(C)=O)cc1Nc1cc(-c2cc(F)c3nn(C)cc3c2)nc(C(C)(F)F)n1` [Example 396, N-(4-((2-(1,1-difluoroethyl)-6-(7-fluoro-2-methyl-2H-indazol-5-yl)pyrimidin-4-yl)amino)-5-methoxypyridin-2-yl)acetamide] gave an IC50 of 10 to 100 nM. Take `CC(=O)Nc1cc(Nc2cc(C)nc(C(C)(F)F)n2)c(OCC2CCN(C)C2)cn1` (stereo not drawn) [Example 480, N-(4-((2-(1,1-difluoroethyl)-6-methylpyrimidin-4-yl)amino)-5-((1-methylpyrrolidin-3-yl)methoxy)pyridin-2-yl)acetamide]: the IC50 fell in the range of 10 to 100 nM. Next, `CCN1CCn2nc(-c3cnc(NC(C)=O)cc3Nc3cc(C)nc(C45COC(C4)C5)n3)cc2C1` [Example 544, N-(4-((2-(2-oxabicyclo[2.1.1]hexan-4-yl)-6-methylpyrimidin-4-yl)amino)-5-(5-ethyl-4,5,6,7-tetrahydropyrazolo[1,5-a]pyrazin-2-yl)pyridin-2-yl)acetamide]: at most 10 nM. For `CC(=O)Nc1cc(Nc2cc(C)nc(C(C)(F)F)n2)c(-c2ccc(C(F)F)nn2)cn1` [Example 546, N-(4-((2-(1,1-difluoroethyl)-6-methylpyrimidin-4-yl)amino)-5-(6-(difluoromethyl)pyridazin-3-yl)pyridin-2-yl)acetamide], the IC50 was at most 10 nM.
